Source: PubChem BioAssay AID651672 (The Scripps Research Institute Molecular Screening Center, 2012)
Calls of active or inactive are those of the source. No rule for the calls is given here.

Target: Perilipin-1 (Homo sapiens) (UniProt O60240)
Assay: ABHD5 and perilipin-1 interaction blockers – biochemical, luminescence, counter-screen for ABHD5-PLIN5 interaction inhibitor project, dose response (AID 651672);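 also: split Gaussia luciferase complementation between ABHD5 and PLIN1 fusion fragments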
Conditions: ABHD5-PLIN1 interaction

Perilipin-1 (Homo sapiens), sequence (O60240 whole entry, looked up, the tested form may be a part): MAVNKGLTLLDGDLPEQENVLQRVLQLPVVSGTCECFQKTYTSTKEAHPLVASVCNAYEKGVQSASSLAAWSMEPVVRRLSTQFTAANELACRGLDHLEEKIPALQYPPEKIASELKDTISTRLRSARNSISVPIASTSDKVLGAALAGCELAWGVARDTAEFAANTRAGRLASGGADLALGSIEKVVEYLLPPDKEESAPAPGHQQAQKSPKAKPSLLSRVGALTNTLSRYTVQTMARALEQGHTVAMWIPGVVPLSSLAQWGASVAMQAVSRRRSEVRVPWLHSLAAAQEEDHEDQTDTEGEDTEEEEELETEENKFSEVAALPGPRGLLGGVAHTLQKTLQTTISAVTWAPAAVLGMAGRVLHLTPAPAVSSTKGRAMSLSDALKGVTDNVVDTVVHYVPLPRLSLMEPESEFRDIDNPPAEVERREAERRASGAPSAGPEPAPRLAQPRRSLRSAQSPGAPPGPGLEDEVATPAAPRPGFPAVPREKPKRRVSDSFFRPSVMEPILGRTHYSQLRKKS

Row | SMILES | IC50
1 | COc1ccc(C(C(=O)Nc2ccc3c(c2)OCCO3)n2c(=O)c(-c3ccco3)nc3ccccc32)cc1 (stereo unspecified) | 5.43 µM
2 | CC(=O)OCC1=C(C(=O)O)N2C(=O)C(NC(=O)CCn3nc(C(F)(F)F)c(Br)c3C3CC3)C2SC1 (stereo unspecified) | 8.15 µM
3 | c1ccc(CCC2=NCCn3cccc32)cc1 | inactive
4 | CSc1nnc(NC(=O)c2nc(S(=O)(=O)Cc3cccc(C)c3)ncc2Cl)s1 | 2.7 µM
5 | CCC(C)NC(=O)Nc1ccc2c(c1)N(C)C(=O)c1ccccc1S2 (stereo unspecified) | 3.7 µM
6 | Cc1cccc(C)c1NC(=O)C(c1ccc(C(F)(F)F)cc1)n1c(=O)c(-c2ccco2)nc2ccccc21 (stereo unspecified) | 2.22 µM
7 | O=c1[nH]c(C2CCN(S(=O)(=O)c3ccc(F)cc3)CC2)nc2c1nnn2Cc1ccc2c(c1)OCCO2 | inactive
8 | CC1=CC(C)(C)Nc2ccc(OC(=O)CN3C(=O)CCC3=O)cc21 | 1.72 µM
9 | O=C1/C(=C/c2cccnc2)CC/C1=C\c1cccnc1 | 5.83 µM
10 | Cc1ccc2sc(N(CCCN(C)C)C(=O)CN3C(=O)c4ccccc4C3=O)nc2c1C | inactive
11 | C#CCN(C[C@@H]1[C@@H](OC(=O)NCCCCCC)[C@@H](OC(=O)NCCCCCC)Cn2c(=O)ccc(=O)n21)S(=O)(=O)c1ccc(C)cc1 | 5.99 µM
12 | FC(F)(F)c1cccc(NC(=S)N(CCCN2CCCC2)Cc2cccn2Cc2ccc(Cl)cc2)c1 | inactive
13 | COc1cccc2sc(N(CCCN(C)C)C(=O)COc3ccc(Cl)cc3)nc12 | inactive
14 | O=C(NC1CCCCC1)C(c1ccccc1)n1c(=O)c(-c2ccco2)nc2ccccc21 (stereo unspecified) | 0.964 µM
15 | O=[N+]([O-])/C=C/c1cn(Cc2ccc(F)cc2)c2ccccc12 | 7.46 µM
16 | CCN(CC)CCNC(=O)c1ccc(NC(=O)c2cn(-c3ccccc3)nc2-c2cccs2)cc1 | inactive
17 | O=C1NC(=S)NC(=O)C12C(c1ccccc1)NC(=S)NC2c1ccccc1 (stereo unspecified) | 4.34 µM
18 | Cc1ccc(/C(O)=C2/C(=O)C(=O)OC2c2ccc(Cl)cc2)cc1 (stereo unspecified) | 9.38 µM

Row | SMILES | IC50
19 | COc1ccc(NC(=O)c2cc3ccccc3cc2O)cc1 | inactive
20 | C#CCN(C[C@@H]1[C@@H](OC(=O)Nc2cccs2)[C@@H](OC(=O)Nc2cccs2)Cn2c(=O)ccc(=O)n21)S(=O)(=O)c1ccc(C)cc1 | 2.33 µM
21 | COCCN(CCOC)c1nc(N)c2c(N)nc3c(c2c1C#N)CC(=O)N3Cc1ccc(Cl)cc1 | 6.57 µM
22 | COc1cc2c(cc1OC)C(C)N(CCc1ccc(Cl)cc1)CC2 (stereo unspecified) | inactive
23 | Cc1cc(C)c(NC(=O)C[N+](C)(C)CC(O)COc2cccc3ccccc23)c(C)c1 (stereo unspecified) | 7.99 µM
24 | Cc1ccc(S(=O)(=O)N2C[C@H]3n4c(=O)ccc(=O)n4C[C@H](OC(=O)Nc4cccs4)[C@@]3(O)C2)cc1 | 6.5 µM
25 | CN(C)CCCN(C(=O)CCc1ccccc1)c1nc2ccc(Cl)cc2s1 | 6.98 µM
26 | CC(C)(C)NC(=O)C(c1ccc(-c2ccccc2)cc1)n1c(=O)c(-c2ccco2)nc2ccccc21 (stereo unspecified) | 1.67 µM
27 | C#CCN(C[C@@H]1[C@@H](OC(=O)NCC2CCCCC2)[C@@H](OC(=O)NCC2CCCCC2)Cn2c(=O)ccc(=O)n21)S(=O)(=O)c1ccc(C)cc1 | 4.76 µM
28 | O=C(NCc1ccccc1)C(c1ccc(-c2ccccc2)cc1)n1c(=O)c(-c2ccco2)nc2ccccc21 (stereo unspecified) | 3.44 µM
29 | COc1ccc(-c2cc(N)n(S(=O)(=O)c3c(F)c(F)c(F)c(F)c3F)n2)cc1OC | 9.95 µM
30 | COc1ccccc1/C=C/C(=O)c1ccccc1 | 6.05 µM
31 | COc1ccccc1C=CC(=O)C=Cc1ccccc1OC | 5.34 µM
32 | Cc1cc(C)c(NC(=O)CN2CCN3CCCC3C2)c(C)c1 (stereo unspecified) | inactive
33 | Cc1ccc(O)c(C(=O)C=Cc2ccccc2)c1 | 2.46 µM
34 | O=C(COc1ccccc1Cl)Nc1ccc(N2CCCC2)cc1 | > 39.9 µM (inactive)
35 | CC(C)(C)NC(=O)C(c1cc2ccccc2o1)n1c(=O)c(-c2ccco2)nc2ccccc21 (stereo unspecified) | 1.93 µM
36 | O=c1nc(/C=C/c2ccc(Cl)cc2Cl)cc(C(F)(F)F)[nH]1 | 2.94 µM
